Source: patent publication US20230348362A1, “LIPID COMPOUNDS AND LIPID NANOPARTICLE COMPOSITIONS” (Suzhou Abogen Biosciences Co., Ltd., priority 2021, published 2023)
Read-outs that look alike come from different tables or passages of the source.

Legend:
[1] = Apparent pKa of LNP formulations, TNS fluorescence assay; format: physicochemical; details: LNP cationic lipid/DSPC/cholesterol/DMG-PEG 50/10/38.5/1.5 mol %
How it was run: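 LNPs (cationic lipid/DSPC/cholesterol/DMG-PEG 50/10/38.5/1.5 mol %) diluted to 0.1 mg/mL total lipid in citrate/phosphate/borate/NaCl buffers spanning pH 3–9 with TNS. Fluorescence (ex 325, em 435 nm) read at room temperature; pKa taken as the pH at half-maximal intensity from sigmoidal fit.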

[2] = Encapsulation efficiency of lipid nanoparticles, Quant-it Ribogreen RNA assay; format: physicochemical; details: LNP of lipid/DSPC/cholesterol/PEG-lipid 50:10:38.5:1.5 encapsulating hEPO mRNA
How it was run: (§1)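 LNPs made from ionizable lipid/DSPC/cholesterol/PEG-lipid (50:10:38.5:1.5) and mRNA in citrate pH 4 by microfluidic mixing, lipid:mRNA about 10:1–30:1 w/w, then dialysed into DPBS and filtered. Size and PDI measured by DLS in backscatter mode; encapsulation efficiency measured by RiboGreen assay.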

[3] = Lipid nanoparticle size and polydispersity by dynamic light scattering; format: physicochemical; details: LNP of lipid/DSPC/cholesterol/PEG-lipid 50:10:38.5:1.5 encapsulating hEPO mRNA
How it was run: as §1

[4] = Lipid clearance study: lipid remaining in liver tissue by LC-MS/MS; details: ICR female mice, 0.5 mg/kg i.v. bolus dose mRNA
Protocol: (§2) LNPs were injected into mice via the tail vein (ICR female, IV, 0.5 mg mRNA/kg), then mice were anesthetized under carbon dioxide at different time (e.g., 6 h, 24 h, and 48 h) after administration and sacrificed via cardiac puncture. Liver tissue were collected immediately, and then washed by ice-cold saline. Liver samples were weighed and homogenized in ice water bath by adding pre-chilled 20% methanol-water (v/v) at 2˜8° C. with the ratio of 1:5 (w/v). The homogenized tissue samples were stored in −90˜−60° C. freezer prior to analysis.
(§3) Sample Processing. All liver tissue homogenate samples were allowed to thaw at room temperature. An aliquot of 50 μL of sample was added with 50 μL MgCl2 (2M), then added with ACN which contains of Verapamil, 5 ng·mL^−1 and Glibenclamide, 50 ng·mL^−1 and Diclofenac, 200 ng·mL^1 and Tolbutamide, 200 ng·mL^1 for protein precipitation, then centrifuged at 13000 rpm for 8 min. Then 100 μL of supernatant was added with 100 μL water, then vortexed well. An aliquot of 5 μL of the mixture was injected into the LC-MS/MS system.

[5] = mouse, in vivo, iv, 0.5 mg/kg
Protocol: as §2, §3

CCCCCCCCCCCOC(=O)CCCCCN(CCN(CCO)CCCCCC(=O)OCC(CCCCCCCC)CCCCCCCC)C1CCCCC1 [Compound 21]
Apparent Pka [1]: 6.361
Encapsulation Efficiency [2]: 92.3%
polydispersity [3]: 0.042
size (nm) [3]: 81.93 nm
% Dose Remaining in Liver Tissue ([4]; 6 h): 94.55%
% Dose Remaining in Liver Tissue ([4]; 24 h): 67.66%
% Dose Remaining in Liver Tissue ([4]; 48 h): 24.38%

CCCCCCCC(=O)OCC(CCCCN(CCO)CCN(CCCCC(COC(=O)CCCCCCC)COC(=O)CCCCCCC)C1CCC1)COC(=O)CCCCCCC [Compound 71]
Apparent Pka [1]: 6.489
Encapsulation Efficiency [2]: 89.25%
polydispersity [3]: 0.091
size (nm) [3]: 65.56 nm
% Dose Remaining in Liver Tissue ([4]; 6 h): 1.34%
% Dose Remaining in Liver Tissue ([4]; 24 h): 0.00%
% Dose Remaining in Liver Tissue ([4]; 48 h): 0.00%

CCCCCCCCC(CCCCCCCC)CC(=O)NCCCCCN(CCN(CCO)CCCCCOC(=O)CC(CCCCCCCC)CCCCCCCC)C1CCCCCC1 [Compound 74]
Encapsulation Efficiency [2]: 92.74%
polydispersity [3]: 0.05
size (nm) [3]: 67.96 nm
% Dose Remaining in Liver Tissue ([4]; 6 h): 48.44%
% Dose Remaining in Liver Tissue ([4]; 24 h): 50.42%
% Dose Remaining in Liver Tissue ([4]; 48 h): 50.83%

CCCCCCCCCCCOC(=O)CCCCCN(CCN(CCO)CCCCCOC(=O)N(CCCCCCCC)CCCCCCCC)C1CCCCC1 [Compound 99]
Encapsulation Efficiency [2]: 83.64%
polydispersity [3]: 0.135
size (nm) [3]: 87.73 nm
% Dose Remaining in Liver Tissue ([4]; 6 h): 22.45%
% Dose Remaining in Liver Tissue ([4]; 24 h): 16.39%
% Dose Remaining in Liver Tissue ([4]; 48 h): 14.08%

CCCCCCCCC(CCCCCCCC)CNC(=O)CCCCCN1CCC(N(CCO)CCCCC(COC(=O)CCCCCCC)COC(=O)CCCCCCC)CC1 [Compound 218]
Encapsulation Efficiency [2]: 93.64%
polydispersity [3]: 0.043
size (nm) [3]: 82.04 nm
% Dose Remaining in Liver Tissue ([4]; 6 h): 7.38%
% Dose Remaining in Liver Tissue ([4]; 24 h): 1.03%
% Dose Remaining in Liver Tissue ([4]; 48 h): 0.17%

CCCCCCCCC(CCCCCCCC)COC(=O)CCCCCN(CCCCN(CCO)CCCCC(COC(=O)CCCCCCC)COC(=O)CCCCCCC)C1CCC1 [Compound 220]
Encapsulation Efficiency [2]: 94.84%
polydispersity [3]: 0.15
size (nm) [3]: 94.56 nm
% Dose Remaining in Liver Tissue ([4]; 6 h): 7.87%
% Dose Remaining in Liver Tissue ([4]; 24 h): 1.98%
% Dose Remaining in Liver Tissue ([4]; 48 h): 0.52%

CCCCCCCCC(CCCCCC)CNC(=O)CCCCN(CCO)CCN(CCCCC(COC(=O)CCCCCCC)COC(=O)CCCCCCC)C1CCCC1 (centres unmarked) [Compound 227]
Apparent Pka [1]: 6.872
Encapsulation Efficiency [2]: 91.70%
polydispersity [3]: 0.048
size (nm) [3]: 83.54 nm

CCCCCCCCC(CCCCCC)CNC(=O)CCCCN(CCO)CCN(CCCCC(COC(=O)CCCCCCC)COC(=O)CCCCCCC)C1CCCCCC1 (centres unmarked) [Compound 229]
Apparent Pka [1]: 6.849
Encapsulation Efficiency [2]: 92.04%
polydispersity [3]: 0.042
size (nm) [3]: 77.73 nm

CCCCCCCCC(CCCCCC)CNC(=O)CCCCCCN(CCO)CCN(CCCCC(COC(=O)CCCCCCC)COC(=O)CCCCCCC)C1CCCC1 (centres unmarked) [Compound 230]
Apparent Pka [1]: 6.742
Encapsulation Efficiency [2]: 89.65%
polydispersity [3]: 0.051
size (nm) [3]: 89.46 nm

CCCCCCCCC(CCCCCC)CNC(=O)CCCCCCN(CCO)CCN(CCCCC(COC(=O)CCCCCCC)COC(=O)CCCCCCC)C1CCCCC1 (centres unmarked) [Compound 231]
Apparent Pka [1]: 6.712
Encapsulation Efficiency [2]: 92.25%
polydispersity [3]: 0.036
size (nm) [3]: 73.66 nm

CCCCCCCCC(CCCCCC)CNC(=O)CCCCCCN(CCO)CCN(CCCCC(COC(=O)CCCCCCC)COC(=O)CCCCCCC)C1CCCCCC1 (centres unmarked) [Compound 232]
Apparent Pka [1]: 6.567
Encapsulation Efficiency [2]: 92.47%
polydispersity [3]: 0.031
size (nm) [3]: 77.78 nm

CCCCCCCCC(CCCCCC)CNC(=O)CCCCCCN(CCO)CCN(CCCCC(COC(=O)CCCCCCC)COC(=O)CCCCCCC)C1CCCCCCC1 (centres unmarked) [Compound 233]
Apparent Pka [1]: 6.463
Encapsulation Efficiency [2]: 91.15%
polydispersity [3]: 0.052
size (nm) [3]: 76.91 nm

CCCCCCCCC(CCCCCC)CNC(=O)CCCCCCCN(CCO)CCN(CCCCC(COC(=O)CCCCCCC)COC(=O)CCCCCCC)C1CCCC1 (centres unmarked) [Compound 234]
Apparent Pka [1]: 6.566
Encapsulation Efficiency [2]: 88.68%
polydispersity [3]: 0.035
size (nm) [3]: 67.07 nm

CCCCCCCCC(CCCCCC)CNC(=O)CCCCCCCN(CCO)CCN(CCCCC(COC(=O)CCCCCCC)COC(=O)CCCCCCC)C1CCCCC1 (centres unmarked) [Compound 235]
Apparent Pka [1]: 6.545
Encapsulation Efficiency [2]: 88.53%
polydispersity [3]: 0.093
size (nm) [3]: 67.92 nm

CCCCCCCCC(CCCCCCCC)COC(=O)CCCCCN1CCC(N(CCO)CCCCC(COC(=O)CCCCCCC)COC(=O)CCCCCCC)CC1 [Compound 261]
Apparent Pka [1]: 6.552
Encapsulation Efficiency [2]: 95.18%
polydispersity [3]: 0.066
size (nm) [3]: 82.86 nm

CCCCC/C=C\C/C=C\CCCCCCCCC(CCCCCCCC/C=C\C/C=C\CCCCC)OC(=O)CCCN(C)C [MC3, dilinoleylmethyl-4-dimethylaminobutyrate]
% Dose Remaining in Liver Tissue ([5]; 6 h): 69.39%
% Dose Remaining in Liver Tissue ([5]; 24 h): 61.63%
% Dose Remaining in Liver Tissue ([5]; 48 h): 52.47%
